According to patent US6011041A, “Use of anhydrovinblastine” (priority 1996, dated 2000):
Counter-ions that a name gives are not always drawn.

Tested on: Nb2-U17 lymphoma
Test: Nb2-U17 lymphoma transplant efficacy in Nb rats (FIGS. 2-3)
Format: in vivo, rat
Conditions: for time to regression of tumours to essential non-palpability: single i.p. subacutely toxic dose (AHVB 3.0, navelbine 2.0, vincristine 0.7 mg/kg); for recurrence of tumours after day 10 / time after which most of the lost animal weight was regained: single i.p. subacutely toxic dose, Nb2-U17 rats; for anti-tumour effect at 50% of maximum tolerated dose, relative potency: half subacutely toxic dose, single i.p. (AHVB 1.5, navelbine 1.0, vincristine 0.35 mg/kg)
From the text: The U17 cell line was originally derived from a transplantable malignant lymphoma that arose spontaneously in male Noble rats (British Columbia Cancer Research center Joint Animal Breeding Facility with parents obtained from the National Institutes of Health, Bethesda, Md.). The cell line is prolactin dependent and can readily be cultured in vitro. U17 derived solid tumours are generated by subcutaneous injection (via the trocar method) of a small (2 mm^2) piece of tumour tissue obtained from male Noble rat. Tumour tissue used for the implants arose two weeks after injection of 5×10^6 U17 cells (from culture) subcutaneously in the nape of the neck. For assessing the anti-tumour activity of AHVB, tumour bearing animals (2-4 gm tumours) were given a single treatment of drug and tumour size was measured as a function of time following treatment. The anti-tumour activity was assessed at a series of different doses in order to determine the maximum therapeutic dose of AHVB. Comparative studies between vincristine, vinblastine and AHVB were performed.
Cultures of the non-metastatic, pre-T Nb2 lymphoma line originally developed at The University of British Columbia and designated Nb2-U17 (Anticancer Research 14:2485-2492, 1994), and are available from the British Columbia Cancer Research Center. Cells from exponentially growing Nb2-U17 suspension cultures were injected subcutaneously into methoxyflurane-anesthetized, mature male Nb rats (5 rats; 310-380 grams; 5×10^6 cells/rat in 1 ml of culture medium) at the nape of the neck using a 1.5" 20-gauge needle. At about 3 weeks, when the tumours reached a size of 4-7 cm (length+width), the animals were sacrificed and the tumours used for transplantation as described below.
A tumour from a rat was excised, minced and the tumour tissue was put into trocars (2", 13 gauge). The tissue samples were implanted subcutaneously in the nape of the neck of methoxyflurane-anesthetized male Nb rats (248-404 grams; 1 trocar per rat). This procedure was repeated 5 times to get a total of 60 tumour-bearing rats to be used for efficacy studies of the 3 drugs.
When the tumours were well established (1.5-2 weeks later), three separate groups of 20 rats, as closely matched as possible in terms of both tumour weight and rat weight, were selected for administration of the three test articles (i.e. one group for each test article).
Vincristine was administered to rats weighing 281-384 grams, bearing tumours weighing 6.3-16.3 grams. Navelbine was administered to rats weighing 274-389 grams bearing tumours weighing 9.1-23.3 grams. AHVB was administered to rats weighing 303-400 grams, bearing tumours weighing 7.9-25.9 grams. Tumour weights were estimated using the hemi-ellipsoid model (weight in grams=[…] in cm).
The oncolytic effects of each of the three drugs were assessed at a subacutely toxic dose, determined for each drug in preliminary studies using non-tumour-bearing, mature male Nb rats, i.e. 3.0, 2.0 and 0.7 mg/kg for […], navelbine and vincristine, respectively as illustrated in FIG. 2. In addition, each drug was assessed at 50% and 25% of its subacutely toxic dose. Five tumour-bearing rats were used to evaluate the effect at each dose level. The drugs were administered intraperitoneally as a single bolus in a volume of 0.19-0.31 ml, as indicated by the weight of the animals. To this end, drug preparations were diluted to appropriate concentrations using sparged saline adjusted with acetic acid to pH 4.2. For each drug, a group of 5 control rats received an intraperitoneal injection of the equivalent amount of saline (pH 4.2). The tumour-bearing rats were organized in the following groups:
Following administration of the test articles, the animals; weight and tumour size (using calipers) were determined daily until the tumour reached an estimated weight of 35 grams, or started to ulcerate, at which times the animals were sacrificed (by carbondioxide inhalation) and subjected to necropsy. […]

| SMILES | time to regression of tumours to essential non-palpability | recurrence of tumours after day 10 | time after which most of the lost animal weight was regained | anti-tumour effect at 50% of maximum tolerated dose, relative potency |
| --- | --- | --- | --- | --- |
| CC[C@]1(O)C[C@H]2CN(CCc3c([nH]c4ccccc34)[C@@](C(=O)OC)(c3cc4c(cc3OC)N(C=O)[C@H]3[C@@](O)(C(=O)OC)[C@H](OC(C)=O)[C@]5(CC)C=CCN6CC[C@]43[C@@H]65)C2)C1 [vincristine, Sulfate of 22-oxovincaleukoblastine] | ≤ 5 days | recurrence of tumours was not observed | about 17 days |  |
| CCC1=CC2CN(CCc3c([nH]c4ccccc34)C(C(=O)OC)(c3cc4c(cc3OC)N(C)C3C(O)(C(=O)OC)C(OC(C)=O)C5(CC)C=CCN6CCC43C65)C2)C1 (centres unmarked) [AHVB, 3',4'-anhydrovinblastine] | ≤ 5 days | occurred to about the same extent | about 17 days | less potent than vincristine |
| CCC1=C[C@@H]2CN(C1)Cc1c([nH]c3ccccc13)[C@@](C(=O)OC)(c1cc3c(cc1OC)N(C)[C@H]1[C@@](O)(C(=O)OC)[C@H](OC(C)=O)[C@]4(CC)C=CCN5CC[C@]31[C@@H]54)C2 [navelbine, 3',4'-didehydro-4'-deoxy-C'-norvincaleukoblastine-di-L-tartrate] | ≤ 5 days | occurred to about the same extent | about 17 days | less potent than AHVB |
